Source: patent US10323021B2, “Triazoles as NR2B receptor inhibitors” (Janssen Pharmaceuticals, Inc., priority 2014, dated 2019)

Target: rat NR1/NR2B receptor (Rattus norvegicus (Rat), UniProt P35439+Q00960)
Test: NR2B binding assay: inhibition of specific [3H]-Ifenprodil binding to the rat NR1/NR2B receptor
Settings: for inhibition at 1 µM: 1 μM test compound, read-out: NR2B binding assay % INH @ 1 μM; for inhibition at 10 µM: 10 μM test compound, read-out: NR2B binding assay % INH @ 10 μM
Description: Inhibition of Specific Binding to the Rat NR1/NR2B Receptor
Male Wistar rats (180 to 200 g) were killed by suffocation in a CO2 chamber for two minutes. Whole brains without cerebellum were removed and dissected on ice, placed into closed vials and stored at −70° C.
Membrane fractions were prepared and tested using standard techniques. At the time of the assay, 1 g of the brains was placed into 25 ml of 50 mM Tris/10 mM EDTA buffer, pH 7.1, (25 vol. per g of original tissue) and homogenized for 30 sec at 20000 rpm with an Ultraturrax T25 (Jahnke & Kunkel, IKA-Labortechnik, Staufen, Germany). The homogenate was centrifuged at 4° C. for 10 min at 48000 g (OPTIMA L-70, Beckman, Palo Alto, Calif. 94304, USA).
The supernatant was discarded and the pellet was homogenized on ice for 30 sec at 20000 rpm with an Ultraturrax and again centrifuged at 48000 g for 30 minutes at 4° C. The resulted pellet was resuspended in 25 ml of 50 mM Tris/10 mM EDTA buffer, homogenized for 30 sec with an Ultraturrax, aliquoted, frozen at −70° C. and stored until use.
After thawing on the day of the assay, a 5 ml membrane aliquot was centrifuged at 48000 g for 30 min at 4° C. The pellet was resuspended in 5 ml of 5 mM Tris/1 mM EDTA buffer, pH 7.4, homogenized for 30 sec at 20000 rpm with an Ultraturrax and centrifuged at 48000 g for 30 min at 4° C. This was repeated twice. The final pellet was homogenized in 5 ml of 5 mM Tris/1 mM EDTA buffer at 4° C. with an Ultraturrax and used for the Ifenprodil-binding assay as described in the following.
Nonspecific binding was estimated in the presence of […] CP101.606. The samples were incubated for 60 min. at 4° C.
The incubation was terminated by filtration of the membrane preparations using Filtermat B (Pharmacia, Uppsala Sweden) and a Micro Cell Harvester (Skatron, Lier, Norway). The Filtermat B had been presoaked with 1% polyethylene imine and carefully washed with 50 mM Tris/HCl-buffer pH 7.7 after the filtration to separate free and bound radioactivity.
The optimal amount of membrane preparation in the assay had been determined and optimized for each membrane preparation separately before the test.
For pipetting of the incubation mixture we routinely used the robot Biomek2000 (Fa. Beckman).
For determination of IC50 values the Hill-plot, 2-parameter-model was used.

Sequence of rat NR1/NR2B receptor (Q00960 27-1482, other chains not shown): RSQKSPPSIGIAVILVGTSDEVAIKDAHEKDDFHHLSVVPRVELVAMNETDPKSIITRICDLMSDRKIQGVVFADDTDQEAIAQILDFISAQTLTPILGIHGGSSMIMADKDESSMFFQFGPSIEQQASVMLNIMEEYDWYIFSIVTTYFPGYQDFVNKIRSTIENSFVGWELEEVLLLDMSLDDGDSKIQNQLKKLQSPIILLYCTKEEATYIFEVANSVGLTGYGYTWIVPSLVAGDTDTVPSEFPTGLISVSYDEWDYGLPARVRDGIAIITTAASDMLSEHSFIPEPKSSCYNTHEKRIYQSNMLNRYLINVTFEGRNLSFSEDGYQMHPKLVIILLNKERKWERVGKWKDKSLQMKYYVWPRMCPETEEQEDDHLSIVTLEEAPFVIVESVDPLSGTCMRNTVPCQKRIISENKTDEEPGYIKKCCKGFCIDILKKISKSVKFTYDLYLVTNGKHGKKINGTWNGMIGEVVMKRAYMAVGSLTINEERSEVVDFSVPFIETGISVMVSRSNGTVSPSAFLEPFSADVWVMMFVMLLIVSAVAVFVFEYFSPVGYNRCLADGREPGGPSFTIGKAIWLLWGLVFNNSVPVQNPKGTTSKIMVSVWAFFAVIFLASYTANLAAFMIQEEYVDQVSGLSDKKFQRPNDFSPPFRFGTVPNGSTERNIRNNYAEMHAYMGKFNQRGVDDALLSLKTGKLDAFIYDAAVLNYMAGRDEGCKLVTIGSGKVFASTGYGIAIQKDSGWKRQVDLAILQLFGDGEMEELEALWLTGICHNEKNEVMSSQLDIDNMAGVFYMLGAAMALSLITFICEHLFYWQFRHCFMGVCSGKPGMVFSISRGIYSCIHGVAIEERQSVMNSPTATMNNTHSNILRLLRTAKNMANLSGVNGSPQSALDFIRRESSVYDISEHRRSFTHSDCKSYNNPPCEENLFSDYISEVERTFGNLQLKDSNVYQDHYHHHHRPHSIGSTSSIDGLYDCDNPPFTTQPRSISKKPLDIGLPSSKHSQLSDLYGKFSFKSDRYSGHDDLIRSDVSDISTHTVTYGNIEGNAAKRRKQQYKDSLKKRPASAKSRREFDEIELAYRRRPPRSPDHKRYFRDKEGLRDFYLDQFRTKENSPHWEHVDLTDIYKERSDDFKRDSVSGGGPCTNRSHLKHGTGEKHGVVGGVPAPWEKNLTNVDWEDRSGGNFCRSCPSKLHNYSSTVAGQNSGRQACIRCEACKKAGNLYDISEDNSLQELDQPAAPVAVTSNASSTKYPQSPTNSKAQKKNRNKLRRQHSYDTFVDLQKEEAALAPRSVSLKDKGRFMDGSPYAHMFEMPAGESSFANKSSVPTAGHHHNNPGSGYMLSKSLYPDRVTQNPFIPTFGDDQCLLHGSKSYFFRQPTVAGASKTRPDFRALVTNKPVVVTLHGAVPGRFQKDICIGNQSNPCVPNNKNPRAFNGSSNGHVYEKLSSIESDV

SMILES | inhibition at 1 µM | inhibition at 10 µM
Cc1nc(CO)nn1Cc1cn(-c2ccccc2)nn1 [Example 48, 4-(3-Hydroxymethyl-5-methyl-[1,2,4]triazol-1-ylmethyl)-1-phenyl-1H-[1,2,3]triazole] | 29.6% | -17.1%
CCCc1ncn(Cc2cn(-c3ccc(Cl)cc3)nn2)n1 [Example 3, 1-(4-Chloro-phenyl)-4-(3-propyl-[1,2,4]triazol-1-ylmethyl)-1H-[1,2,3]triazole] | 18.3% | 4.5%
Cc1nc(CO)n(Cc2cn(-c3ccccc3)nn2)n1 [Example 47, 4-(5-Hydroxymethyl-3-methyl-[1,2,4]triazol-1-ylmethyl)-1-phenyl-1H-[1,2,3]triazole] | 33.8% | -8.4%
CC(C)c1ncnn1Cc1cn(-c2ccc(Cl)cc2)nn1 [Example 7, 1-(4-Chloro-phenyl)-4-(5-isopropyl-[1,2,4]triazol-1-ylmethyl)-1H-[1,2,3]triazole] | 2.3% | 40.9%
CC(C)(C)c1ncnn1Cc1cn(-c2ccc(Cl)cc2)nn1 [Example 19, 4-(5-tert-Butyl-[1,2,4]triazol-1-ylmethyl)-1-(4-chloro-phenyl)-1H-[1,2,3]triazole] | 8.2% | 14.5%
CCc1ncnn1Cc1cn(-c2ccc(Cl)cc2)nn1 [Example 5, 1-(4-Chloro-phenyl)-4-(5-ethyl-[1,2,4]triazol-1-ylmethyl)-1H-[1,2,3]triazole] | 1.2% | 30.1%
CCCc1ncnn1Cc1cn(-c2ccc(Cl)cc2)nn1 [Example 2, 1-(4-Chloro-phenyl)-4-(5-propyl-[1,2,4]triazol-1-ylmethyl)-1H-[1,2,3]triazole] | 23.9% | 43%
Cc1nc(C2CCC2)n(Cc2cn(-c3ccc(Cl)cc3)nn2)n1 [Example 21, 1-(4-Chloro-phenyl)-4-(5-cyclobutyl-3-methyl-[1,2,4]triazol-1-ylmethyl)-1H-[1,2,3]triazole] | -1.6% | 6.8%
Cc1ncnn1Cc1cn(-c2ccc(Cl)cc2)nn1 [Example 8, 1-(4-Chloro-phenyl)-4-(5-methyl-[1,2,4]triazol-1-ylmethyl)-1H-[1,2,3]triazole] | 8.3% | 38.7%

Second part, the molecule after the results:

inhibition at 1 µM | inhibition at 10 µM | SMILES
6.6% | 17.9% | Cc1ncn(Cc2cn(-c3ccc(Cl)cc3)nn2)n1 [Example 9, 1-(4-Chloro-phenyl)-4-(3-methyl-[1,2,4]triazol-1-ylmethyl)-1H-[1,2,3]triazole]
14.5% | -2.2% | Cc1nc(C2CCC2)nn1Cc1cn(-c2ccc(Cl)cc2)nn1 [Example 22, 1-(4-Chloro-phenyl)-4-(3-cyclobutyl-5-methyl-[1,2,4]triazol-1-ylmethyl)-1H-[1,2,3]triazole]
11.8% | 21.6% | CCc1ncn(Cc2cn(-c3ccc(Cl)cc3)nn2)n1 [Example 6, 1-(4-Chloro-phenyl)-4-(3-ethyl-[1,2,4]triazol-1-ylmethyl)-1H-[1,2,3]triazole]
-6% | 3.5% | Clc1ccc(-n2cc(Cn3nc(C4CC4)nc3C3CC3)nn2)cc1 [Example 10, 1-(4-Chlorophenyl)-4-(3,5-dicyclopropyl-[1,2,4]triazol-1-ylmethyl)-1-[1,2,3]triazole]
7.5% | 16.2% | Clc1ccc(-n2cc(Cn3cnc(C4CC4)n3)nn2)cc1 [Example 13, 1-(4-Chloro-phenyl)-4-(3-cyclopropyl-[1,2,4]triazol-1-ylmethyl)-1H-[1,2,3]triazole]
21.6% | 2% | CC(C)c1ncn(Cc2cn(-c3ccc(Cl)cc3)nn2)n1 [Example 4, 1-(4-Chloro-phenyl)-4-(3-isopropyl-[1,2,4]triazol-1-ylmethyl)-1H-[1,2,3]triazole]
6.4% | 22.2% | Clc1ccc(-n2cc(Cn3cnc(C4CCCC4)n3)nn2)cc1 [Example 15]
